Source: patent US10961539B2, “Promoter system inducing expression by 3-hydroxypropionic acid and method for biological production of 3-hydroxypropionic acid using same” (NOROO IC Co., Ltd., priority 2015, dated 2021)
Where “and” joins values, the source holds several entries; their conditions need not be identical. Equal values may be shown once. Read-outs that look alike come from different tables or passages of the source.

What was measured:
[1] = test system: 3hpdh; assay: RT-PCR relative mRNA level of 3-HP catabolic gene
[2] = test system: mmsadh; assay type: cell-based, microorganisms shown in Table 1
[3] = test system: 3hpdh; assay: RT-PCR relative mRNA levels of 3-HP degrading genes in various microorganisms (Table 7); assay type: cell-based, microorganisms shown in Table 1
[4] = Achromobacter denitrificans, + 3-HP
[5] = Acidovorax avenae subsp., + 3-HP
[6] = Acinetobacter baumannii, + 3-HP
[7] = Alcanivorax hongdengensis, + 3-HP
[8] = Alicychphilus denitrificans, + 3-HP
[9] = Azospirillum brasilensse, + 3-HP
[10] = Bradyrhizobium japonicum, + 3-HP
[11] = Catenulispora acidiphilia, + 3-HP
[12] = Chromobacterium violaceum, + 3-HP
[13] = Corynebacterium vitaeruminis, + 3-HP
[14] = Glaciecola nitratireducens, + 3-HP
[15] = Janthinobacterium lividum, + 3-HP
[16] = Parvibaculum lavamentivorans, + 3-HP
[17] = Phenylobacterium kunshanensis, + 3-HP
[18] = Polynucleobacter necessarius asymbioticus, + 3-HP
[19] = Pseudomonas denitrificans ATCC13867, + 3-HP
[20] = Pseudomonas fluorescens, + 3-HP
[21] = Pseudomonas knackmussii, + 3-HP
[22] = Psychrobacter phenylpyruvicus, + 3-HP
[23] = Rhodomicrobium vannielli, + 3-HP
[24] = Sphingobium chlorophenolicum, + 3-HP
[25] = Stenotrophomonas maltophilia, + 3-HP
[26] = Verminephrobacter eiseniae, + 3-HP
[27] = Xanthobacter autotrophicus, + 3-HP
[28] = in the microorganisms (Table 7), 25 mM 3-HP in nutrient medium

O=C(O)CCO [3-HP, 3-hydroxypropionic acid]
inducer of expression of 3hpdH ([1]; FIG. 5): acts as an inducer | fold increase of 3hpdh mRNA expression ([1]; cells exposed to 25 mmol/L 3-HP vs no 3-HP, M9 medium, rpoD reference gene): 46 fold | 3hpdh expression on addition of 3-HP ([1]; strain with C3 LysR gene removed): not amplified | Relative mRNA level mmsadh + 3-HP [2]: 5.21 and 5.19 | Relative mRNA level mmsadh + 3-HP [2, 4]: 6.34 | Relative mRNA level mmsadh + 3-HP [2, 5]: 5.98 | Relative mRNA level mmsadh + 3-HP ([2]; Acidovorax sp., + 3-HP): 6.04 | Relative mRNA level mmsadh + 3-HP [2, 6]: 5.76 | Relative mRNA level mmsadh + 3-HP ([2]; Aeromonas hydrophilia, + 3-HP): 6.14 | Relative mRNA level mmsadh + 3-HP ([2]; Agrobacterium sp., + 3-HP): 6.56 | Relative mRNA level mmsadh + 3-HP ([2]; Alcaligenes faecalis, + 3-HP): 5.73 | Relative mRNA level mmsadh + 3-HP [2, 7]: 6.58 | Relative mRNA level mmsadh + 3-HP [2, 8]: 6.01 | Relative mRNA level mmsadh + 3-HP ([2]; Alteromonas marina, + 3-HP): 5.73 | Relative mRNA level mmsadh + 3-HP ([2]; Amycolatopsis sp., + 3-HP): 6.05 | Relative mRNA level mmsadh + 3-HP ([2]; Anaeromyxobacter dehalogenans, + 3-HP): 5.44 | Relative mRNA level mmsadh + 3-HP [2, 9]: 6.05 | Relative mRNA level mmsadh + 3-HP ([2]; Azotobacter vinelandii, + 3-HP): 5.87 | Relative mRNA level mmsadh + 3-HP ([2]; Beijerinckia indica, + 3-HP): 5.01 | Relative mRNA level mmsadh + 3-HP ([2]; Bordetella avium, + 3-HP): 4.98 | Relative mRNA level mmsadh + 3-HP [2, 10]: 5.49 | Relative mRNA level mmsadh + 3-HP ([2]; Burkholderia ambifaria, + 3-HP): 5.13 | Relative mRNA level mmsadh + 3-HP ([2]; Castellaniella defragrans, + 3-HP): 5.98 | Relative mRNA level mmsadh + 3-HP [2, 11]: 5.24 | Relative mRNA level mmsadh + 3-HP ([2]; Caulobacter sp., + 3-HP): 5.96 | Relative mRNA level mmsadh + 3-HP [2, 12]: 6.31 | Relative mRNA level mmsadh + 3-HP ([2]; Collimonas arenae, + 3-HP): 5.87 | Relative mRNA level mmsadh + 3-HP ([2]; Comamonas testosteroni, + 3-HP): 4.96 | Relative mRNA level mmsadh + 3-HP [2, 13]: 5.89 | Relative mRNA level mmsadh + 3-HP ([2]; Cupriavidus necator, + 3-HP): 6.05 | Relative mRNA level mmsadh + 3-HP ([2]; Curvibacter gracilus, + 3-HP): 3.99 | Relative mRNA level mmsadh + 3-HP ([2]; Delftia acidovorans, + 3-HP): 4.03 | Relative mRNA level mmsadh + 3-HP ([2]; Ferrimonas balearica, + 3-HP): 5.17 | Relative mRNA level mmsadh + 3-HP [2, 14]: 4.81 | Relative mRNA level mmsadh + 3-HP ([2]; Gordonia bronchialis, + 3-HP): 5.21 | Relative mRNA level mmsadh + 3-HP ([2]; Hahella chijuensis, + 3-HP): 5.97 | Relative mRNA level mmsadh + 3-HP ([2]; Halomonas elongata, + 3-HP): 4.34 | Relative mRNA level mmsadh + 3-HP ([2]; Hirschia litorea, + 3-HP): 4.56 | Relative mRNA level mmsadh + 3-HP ([2]; Idiomarina sp., + 3-HP): 5.43 | Relative mRNA level mmsadh + 3-HP [2, 15]: 5.01 | Relative mRNA level mmsadh + 3-HP ([2]; Kitasatospora setae, + 3-HP): 5.25 | Relative mRNA level mmsadh + 3-HP ([2]; Kutzneria albida, + 3-HP): 5.61 | Relative mRNA level mmsadh + 3-HP ([2]; Methylobacterium sp., + 3-HP): 598 | Relative mRNA level mmsadh + 3-HP ([2]; Methylocystis sp., + 3-HP): 4.91 | Relative mRNA level mmsadh + 3-HP ([2]; Novosphingobium sp., + 3-HP): 6.04 | Relative mRNA level mmsadh + 3-HP ([2]; Oceanimonas smirnovii, + 3-HP): 4.88 | Relative mRNA level mmsadh + 3-HP ([2]; Paracoccus sp., + 3-HP): 4.96 | Relative mRNA level mmsadh + 3-HP [2, 16]: 4.99 | Relative mRNA level mmsadh + 3-HP [2, 17]: 5.02 | Relative mRNA level mmsadh + 3-HP ([2]; Photobacterium gaetbuleda, + 3-HP): 5.06 | Relative mRNA level mmsadh + 3-HP [2, 18]: 5.37 | Relative mRNA level mmsadh + 3-HP ([2]; Pseudoalteromonas carrgeenovora, + 3-HP): 5.03 | Relative mRNA level mmsadh + 3-HP ([2]; Pseudogulbenkiania sp., + 3-HP): 5.36 | Relative mRNA level mmsadh + 3-HP [2, 19]: 5.43 | Relative mRNA level mmsadh + 3-HP [2, 20]: 4.70 | Relative mRNA level mmsadh + 3-HP [2, 21]: 5.96 | Relative mRNA level mmsadh + 3-HP ([2]; Pseudomonas protegens, + 3-HP): 5.01 | Relative mRNA level mmsadh + 3-HP ([2]; Pseudoxanthomonas spadix, + 3-HP): 4.96 | Relative mRNA level mmsadh + 3-HP [2, 22]: 5.03 | Relative mRNA level mmsadh + 3-HP [2, 23]: 6.02 | Relative mRNA level mmsadh + 3-HP ([2]; Segniliparus rotundus, + 3-HP): 4.32 | Relative mRNA level mmsadh + 3-HP ([2]; Shewanella oneidensis, + 3-HP): 4.07 | Relative mRNA level mmsadh + 3-HP ([2]; Simiduia agarovorans, + 3-HP): 4.87 | Relative mRNA level mmsadh + 3-HP ([2]; Sinorhizobium meliloti, + 3-HP): 4.07 | Relative mRNA level mmsadh + 3-HP [2, 24]: 4.86 | Relative mRNA level mmsadh + 3-HP ([2]; Sphingomonas wittichii, + 3-HP): 6.42 | Relative mRNA level mmsadh + 3-HP ([2]; Sphingopyxis alaskensis, + 3-HP): 6.94 | Relative mRNA level mmsadh + 3-HP [2, 25]: 5.21 | Relative mRNA level mmsadh + 3-HP ([2]; Streptomyces nodosus, + 3-HP): 5.14 | Relative mRNA level mmsadh + 3-HP ([2]; Tatlockia micdadei, + 3-HP): 5.65 | Relative mRNA level mmsadh + 3-HP ([2]; Thalassospira xiamenensis, + 3-HP): 6.10 | Relative mRNA level mmsadh + 3-HP ([2]; Variovorax paradoxus, + 3-HP): 4.97 | Relative mRNA level mmsadh + 3-HP [2, 26]: 5.14 | Relative mRNA level mmsadh + 3-HP ([2]; Vibrio furnissii, + 3-HP): 4.91 | Relative mRNA level mmsadh + 3-HP [2, 27]: 5.41 | Relative mRNA level mmsadh + 3-HP ([2]; Xanthomonas campestri, + 3-HP): 5.09 | increase of expression of mmsadh by 3-HP [2, 28]: 16 fold | Relative mRNA level 3hpdh + 3-HP [3]: 0.19 | Relative mRNA level 3hpdh + 3-HP [3, 4]: 0.24 | Relative mRNA level 3hpdh + 3-HP [3, 5]: 0.28 | Relative mRNA level 3hpdh + 3-HP ([3]; Acidovorax sp., + 3-HP): 0.31 | Relative mRNA level 3hpdh + 3-HP [3, 6]: 0.19 | Relative mRNA level 3hpdh + 3-HP ([3]; Agrobacterium sp., + 3-HP): 0.27 | Relative mRNA level 3hpdh + 3-HP ([3]; Alcaligenes faecalis, + 3-HP): 0.26 | Relative mRNA level 3hpdh + 3-HP [3, 7]: 0.27 | Relative mRNA level 3hpdh + 3-HP [3, 8]: 0.30 | Relative mRNA level 3hpdh + 3-HP ([3]; Alteromonas marina, + 3-HP): 0.34 | Relative mRNA level 3hpdh + 3-HP [3, 9]: 0.41 | Relative mRNA level 3hpdh + 3-HP ([3]; Bordetella avium, + 3-HP): 0.45 | Relative mRNA level 3hpdh + 3-HP [3, 10]: 0.52 | Relative mRNA level 3hpdh + 3-HP ([3]; Burkholderia ambifaria, + 3-HP): 0.31 | Relative mRNA level 3hpdh + 3-HP [3, 11]: 0.41 | Relative mRNA level 3hpdh + 3-HP ([3]; Caulobacter sp., + 3-HP): 0.45 | Relative mRNA level 3hpdh + 3-HP [3, 12]: 0.25 | Relative mRNA level 3hpdh + 3-HP ([3]; Comamonas testosteroni, + 3-HP): 0.24 | Relative mRNA level 3hpdh + 3-HP [3, 13]: 0.28 | Relative mRNA level 3hpdh + 3-HP ([3]; Cupriavidus necator, + 3-HP): 0.21 | Relative mRNA level 3hpdh + 3-HP [3, 14]: 0.30 | Relative mRNA level 3hpdh + 3-HP ([3]; Gordonia bronchialis, + 3-HP): 0.29 | Relative mRNA level 3hpdh + 3-HP ([3]; Hahella chijuensis, + 3-HP): 0.28 | Relative mRNA level 3hpdh + 3-HP ([3]; Halomonas elongata, + 3-HP): 0.32 | Relative mRNA level 3hpdh + 3-HP ([3]; Hirschia litorea, + 3-HP): 0.34 | Relative mRNA level 3hpdh + 3-HP ([3]; Idiomarina sp., + 3-HP): 0.42 | Relative mRNA level 3hpdh + 3-HP [3, 15]: 0.33 | Relative mRNA level 3hpdh + 3-HP ([3]; Kitasatospora setae, + 3-HP): 0.36 | Relative mRNA level 3hpdh + 3-HP ([3]; Kutzneria albida, + 3-HP): 0.41 | Relative mRNA level 3hpdh + 3-HP ([3]; Methylobacterium sp., + 3-HP): 0.45 | Relative mRNA level 3hpdh + 3-HP ([3]; Novosphingobium sp., + 3-HP): 0.39 | Relative mRNA level 3hpdh + 3-HP ([3]; Oceanimonas smirnovii, + 3-HP): 0.24 | Relative mRNA level 3hpdh + 3-HP ([3]; Paracoccus sp., + 3-HP): 0.25 | Relative mRNA level 3hpdh + 3-HP [3, 16]: 0.28 | Relative mRNA level 3hpdh + 3-HP [3, 17]: 0.33 | Relative mRNA level 3hpdh + 3-HP [3, 18]: 0.45 | Relative mRNA level 3hpdh + 3-HP ([3]; Pseudogulbenkiania sp., + 3-HP): 0.26 | Relative mRNA level 3hpdh + 3-HP [3, 19]: 0.23 | Relative mRNA level 3hpdh + 3-HP [3, 20]: 0.27 | Relative mRNA level 3hpdh + 3-HP [3, 21]: 0.25 | Relative mRNA level 3hpdh + 3-HP ([3]; Pseudomonas protegens, + 3-HP): 0.19 | Relative mRNA level 3hpdh + 3-HP [3, 22]: 0.37 | Relative mRNA level 3hpdh + 3-HP [3, 23]: 0.41 | Relative mRNA level 3hpdh + 3-HP ([3]; Segniliparus rotundus, + 3-HP): 0.27 | Relative mRNA level 3hpdh + 3-HP ([3]; Shewanella oneidensis, + 3-HP): 0.28 | Relative mRNA level 3hpdh + 3-HP ([3]; Simiduia agarovorans, + 3-HP): 0.29 | Relative mRNA level 3hpdh + 3-HP [3, 24]: 0.33 | Relative mRNA level 3hpdh + 3-HP ([3]; Sphingomonas wittichii, + 3-HP): 0.45 | Relative mRNA level 3hpdh + 3-HP [3, 25]: 0.31 | Relative mRNA level 3hpdh + 3-HP ([3]; Streptomyces nodosus, + 3-HP): 0.39 | Relative mRNA level 3hpdh + 3-HP [3, 26]: 0.43 | Relative mRNA level 3hpdh + 3-HP ([3]; Vibrio furnissii, + 3-HP): 0.39 | Relative mRNA level 3hpdh + 3-HP [3, 27]: 0.27 | Relative mRNA level 3hpdh + 3-HP ([3]; Xanthomonas campestri, + 3-HP): 0.25 | increase of expression of 3hpdh by 3-HP [3, 28]: 6 fold
